Assay results from US9283219B2, “Sublingual films” (Cynapsus Therapeutics, Inc., priority 2010, dated 2016).
Structures can show the parent of a compound that is named as a salt.

Tests used:
[1] = Permeability studies, Franz diffusion cells; type: in vitro ADME; details: pig
Description: Freshly collected buccal tissues were obtained from pig and mucosa's were isolated carefully. The prepared mucosa membranes with approximate size of 4 cm^2 were mounted between donor and receiver chambers of Franz diffusion cells with available diffusion area of 1.77 cm^2. Test treatments and controls were run in quadruplicate. The receiver compartment, which contained a stirring bar, was filled with 8 mL of KRB buffer, pH 7.4 containing 1% BSA. The Franz cells were placed in a heating/stirring block. The temperature was set at 37° C. in order to maintain the tissue surface temperature at 32° C.; the stirring rate was set at 400 rpm. Two milliliters of formulated compound at different pHs was added to the donor chambers, completely covering the exposed mucosa. All dosing solutions contained 0.1% of sodium dithionite, 0.2% DMSO and 5% propylene glycol or glycerin. The donor compartment was covered with Parafilm to minimize evaporation. An aliquot (˜0.5 mL) was taken from the receiver compartment at 2, 60, 90, and 120 min and replaced with an equal volume of buffer warmed at 37° C. Sampling time points from donor compartment were 0, 60, 90 and 120 min. Samples were diluted with 0.5 mL (1:1) of 10% aq. ascorbic acid. The concentration of each analyte was quantified by LC-MS/MS (Appendix I). The whole study was done in dark with yellow light, and glass vials and syringes were used for sampling. […] Cd final is the concentration of the donor at the end of the incubation period (interval), μM.

[2] = cited from earlier work
[3] = subcutaneous injection, 0.5 mg/kg, literature value; cited from earlier work

Structure (SMILES): CN1CCc2cccc3c2[C@H]1Cc1ccc(O)c(O)c1-3 [apomorphine]
- Papp at 120 min ([1]; pH 6.4, pH 6.4): 0.071 ×10⁻⁶ cm/s
- Papp at 120 min ([1]; pH 6.8, pH 6.8): 0.054 ×10⁻⁶ cm/s
- Papp at 120 min ([1]; pH 7.4, pH 7.4): 0.185 ×10⁻⁶ cm/s
- Papp at 120 min ([1]; pH 8, pH 8.0): 0.556 ×10⁻⁶ cm/s
- Papp at 120 min ([1]; pH 8, pH 8.0 + 1% glycerin monostearate): 2.34 ×10⁻⁶ cm/s
- Papp at 120 min ([1]; pH 8, pH 8.0 + 1% magnesium stearate): 0.3 ×10⁻⁶ cm/s
- Papp at 120 min ([1]; pH 8, pH 8.0 + 1% tocopherol acetate): 0.98 ×10⁻⁶ cm/s
- adverse effects of intranasal administration ([2]; intranasal administration): transient nasal blockage, burning sensation and swollen nose and lips
- side effect of subcutaneous injection ([2]; subcutaneous injection): development of nodules, which often become infected
- adverse effects of sublingual tablets ([2]; sublingual administration of tablets, prolonged use): severe stomatitis on prolonged use with buccal mucosal ulceration in half the patients

Structure (SMILES): CN1CCc2cccc3c2[C@H]1Cc1ccc(O)c(O)c1-3 [sc inj, apomorphine hydrochloride]
- AUCinf [3]: 17828 ng·min/mL
- Cmax [3]: 331 ng/mL
- Tmax [3]: 25 min
